# Assay results as given in article PMC3317662, “Some Commonly Used Brominated Flame Retardants Cause Ca^2+-ATPase Inhibition, Beta-Amyloid Peptide Release and Apoptosis in SH-SY5Y Neuronal Cells” (PLoS ONE, 2012).
# Target: T1, microsomal Ca2+-ATPase (SERCA)
# T1 construct: native enzyme in microsomal membranes isolated from SH-SY5Y cells
# Experiment: Ca2+-dependent ATP hydrolysis (phosphate liberation assay) in SH-SY5Y microsomes
# Type: biochemical
row,SMILES,Ki [µM]
1,CC(C)(c1cc(Br)c(O)c(Br)c1)c1cc(Br)c(O)c(Br)c1 [Tetrabromobisphenol-A],9 ± 2
2,Brc1c(Br)c(Br)c(Oc2c(Br)c(Br)c(Br)c(Br)c2Br)c(Br)c1Br [decabromodiphenyl ether],41 ± 7
3,BrC1CCC(Br)C(Br)CCC(Br)C(Br)CCC1Br (stereo not drawn) [hexabromocyclododecane],3.5 ± 1.2
